Source: ChEMBL document CHEMBL4414672, “Synthesis of certain benzothieno[3,2-d]pyrimidine derivatives as a selective SIRT2 inhibitors” (Eur J Med Chem, 2020)

Key:
Format in all cases: functional
[1] = system: OVCAR-3; test: Growth inhibition of human OVCAR3 cells at 10^-5 M incubated for 48 hrs by sulforhodamine B assay; conditions: OVCAR-3, 48 h, read-out: GI
[2] = system: MDA-MB-468; test: Growth inhibition of human MDA-MB-468 cells at 10^-5 M incubated for 48 hrs by sulforhodamine B assay; conditions: MDA-MB-468, 48 h, read-out: GI
[3] = system: Malme-3M; test: Growth inhibition of human MALME-3M cells at 10^-5 M incubated for 48 hrs by sulforhodamine B assay; conditions: read-out: GI
[4] = system: SF-268; test: Growth inhibition of human SF268 cells at 10^-5 M incubated for 48 hrs by sulforhodamine B assay; conditions: SF-268, 48 h, read-out: GI
[5] = system: OVCAR-4; test: Growth inhibition of human OVCAR4 cells at 10^-5 M incubated for 48 hrs by sulforhodamine B assay; conditions: OVCAR-4, 48 h, read-out: GI
[6] = system: T47D; test: Growth inhibition of human T47D cells at 10^-5 M incubated for 48 hrs by sulforhodamine B assay; conditions: read-out: GI
[7] = system: UO-31; test: Growth inhibition of human UO31 cells at 10^-5 M incubated for 48 hrs by sulforhodamine B assay; conditions: UO-31, 48 h, read-out: GI
[8] = system: DU-145; test: Growth inhibition of human DU145 cells at 10^-5 M incubated for 48 hrs by sulforhodamine B assay; conditions: DU-145, 48 h, read-out: GI
[9] = system: Hs-578T; test: Growth inhibition of human Hs 578T cells at 10^-5 M incubated for 48 hrs by sulforhodamine B assay; conditions: read-out: GI
[10] = system: HOP-62; test: Growth inhibition of human HOP62 cells at 10^-5 M incubated for 48 hrs by sulforhodamine B assay; conditions: HOP-62, 48 h, read-out: GI
[11] = system: HL-60(TB); test: Growth inhibition of human HL-60(TB) cells at 10^-5 M incubated for 48 hrs by sulforhodamine B assay; conditions: HL-60, 48 h, read-out: GI
[12] = system: NCI-H322M; test: Growth inhibition of human NCI-H322M cells at 10^-5 M incubated for 48 hrs by sulforhodamine B assay; conditions: read-out: GI
[13] = system: OVCAR-8; test: Growth inhibition of human OVCAR8 cells at 10^-5 M incubated for 48 hrs by sulforhodamine B assay; conditions: OVCAR-8, 48 h, read-out: GI
[14] = system: EKVX; test: Growth inhibition of human EKVX cells at 10^-5 M incubated for 48 hrs by sulforhodamine B assay; conditions: read-out: GI
[15] = system: NCI-H226; test: Growth inhibition of human NCI-H226 cells at 10^-5 M incubated for 48 hrs by sulforhodamine B assay; conditions: NCI-H226, 48 h, read-out: GI
[16] = system: MOLT-4; test: Growth inhibition of human MOLT4 cells at 10^-5 M incubated for 48 hrs by sulforhodamine B assay; conditions: MOLT-4, 48 h, read-out: GI
[17] = system: SW-620; test: Growth inhibition of human SW620 cells at 10^-5 M incubated for 48 hrs by sulforhodamine B assay; conditions: SW-620, 48 h, read-out: GI
[18] = system: HT-29; test: Growth inhibition of human HT-29 cells at 10^-5 M incubated for 48 hrs by sulforhodamine B assay; conditions: HT-29, 48 h, read-out: GI
[19] = system: M14; test: Growth inhibition of human M14 cells at 10^-5 M incubated for 48 hrs by sulforhodamine B assay; conditions: M14, 48 h, read-out: GI
[20] = system: MDA-MB-435; test: Growth inhibition of human MDA-MB-435 cells at 10^-5 M incubated for 48 hrs by sulforhodamine B assay; conditions: MDA-MB-435, 48 h, read-out: GI
[21] = system: A549; test: Growth inhibition of human A549/ATCC cells at 10^-5 M incubated for 48 hrs by sulforhodamine B assay; conditions: A549, 48 h, read-out: GI
[22] = system: TK-10; test: Growth inhibition of human TK10 cells at 10^-5 M incubated for 48 hrs by sulforhodamine B assay; conditions: TK-10, 48 h, read-out: GI
[23] = system: NCI-H522; test: Growth inhibition of human NCI-H522 cells at 10^-5 M incubated for 48 hrs by sulforhodamine B assay; conditions: NCI-H522, 48 h, read-out: GI
[24] = system: CAKI-1; test: Growth inhibition of human Caki1 cells at 10^-5 M incubated for 48 hrs by sulforhodamine B assay; conditions: CAKI-1, 48 h, read-out: GI
[25] = system: K562; test: Growth inhibition of human K562 cells at 10^-5 M incubated for 48 hrs by sulforhodamine B assay; conditions: K562, 48 h, read-out: GI
[26] = system: NCI-H23; test: Growth inhibition of human NCI-H23 cells at 10^-5 M incubated for 48 hrs by sulforhodamine B assay; conditions: NCI-H23, 48 h, read-out: GI
[27] = system: KM12; test: Growth inhibition of human KM12 cells at 10^-5 M incubated for 48 hrs by sulforhodamine B assay; conditions: KM12, 48 h, read-out: GI
[28] = system: HOP-92; test: Growth inhibition of human HOP92 cells at 10^-5 M incubated for 48 hrs by sulforhodamine B assay; conditions: HOP-92, 48 h, read-out: GI
[29] = system: SF-295; test: Growth inhibition of human SF295 cells at 10^-5 M incubated for 48 hrs by sulforhodamine B assay; conditions: SF-295, 48 h, read-out: GI
[30] = system: MDA-MB-231; test: Growth inhibition of human MDA-MB-231 cells at 10^-5 M incubated for 48 hrs by sulforhodamine B assay; conditions: MDA-MB-231, 48 h, read-out: GI
[31] = system: IGROV-1; test: Growth inhibition of human IGROV1 cells at 10^-5 M incubated for 48 hrs by sulforhodamine B assay; conditions: IGROV-1, 48 h, read-out: GI
[32] = system: CCRF-CEM; test: Growth inhibition of human CCRF-CEM cells at 10^-5 M incubated for 48 hrs by sulforhodamine B assay; conditions: read-out: GI
[33] = system: SR; test: Growth inhibition of human SR cells at 10^-5 M incubated for 48 hrs by sulforhodamine B assay; conditions: read-out: GI
[34] = system: A498; test: Growth inhibition of human A498 cells at 10^-5 M incubated for 48 hrs by sulforhodamine B assay; conditions: A498, 48 h, read-out: GI
[35] = system: SK-MEL-28; test: Growth inhibition of human SK-MEL-28 cells at 10^-5 M incubated for 48 hrs by sulforhodamine B assay; conditions: SK-MEL-28, 48 h, read-out: GI
[36] = system: ACHN; test: Growth inhibition of human ACHN cells at 10^-5 M incubated for 48 hrs by sulforhodamine B assay; conditions: read-out: GI
[37] = system: MCF7; test: Growth inhibition of human MCF7 cells at 10^-5 M incubated for 48 hrs by sulforhodamine B assay; conditions: MCF7, 48 h, read-out: GI
[38] = system: BT-549; test: Growth inhibition of human BT549 cells at 10^-5 M incubated for 48 hrs by sulforhodamine B assay; conditions: BT-549, 48 h, read-out: GI
[39] = system: HCT-116; test: Growth inhibition of human HCT116 cells at 10^-5 M incubated for 48 hrs by sulforhodamine B assay; conditions: HCT-116, 48 h, read-out: GI

Structure (SMILES)	inhibition of growth at 10 µM [1] [%]	inhibition of growth at 10 µM [2] [%]	inhibition of growth at 10 µM [3] [%]	inhibition of growth at 10 µM [4] [%]	inhibition of growth at 10 µM [5] [%]	inhibition of growth at 10 µM [6] [%]	inhibition of growth at 10 µM [7] [%]	inhibition of growth at 10 µM [8] [%]	inhibition of growth at 10 µM [9] [%]	inhibition of growth at 10 µM [10] [%]	inhibition of growth at 10 µM [11] [%]	inhibition of growth at 10 µM [12] [%]	inhibition of growth at 10 µM [13] [%]	inhibition of growth at 10 µM [14] [%]	inhibition of growth at 10 µM [15] [%]	inhibition of growth at 10 µM [16] [%]	inhibition of growth at 10 µM [17] [%]	inhibition of growth at 10 µM [18] [%]	inhibition of growth at 10 µM [19] [%]	inhibition of growth at 10 µM [20] [%]	further results
O=C1CC(=O)N(C2=Nc3c(sc4ccc(Cl)cc34)C(c3cccc([N+](=O)[O-])c3)N2)N1 (stereo unspecified)	-6.5	-2.44	-4.33	-5.71	-11.5	20.9	38	-15.1	5.51	9.64	-8	2.7	-4.71	21.9	19.4	-4.64	-6.45	-6.83	-11.3	-10.2	inhibition of growth at 10 µM [21]: -4.87%; inhibition of growth at 10 µM [22]: -11.9%; inhibition of growth at 10 µM [23]: 9.63%; inhibition of growth at 10 µM [24]: 10.9%; inhibition of growth at 10 µM [25]: 0.75%; inhibition of growth at 10 µM [26]: 14.7%; inhibition of growth at 10 µM [27]: -3.57%; inhibition of growth at 10 µM [28]: -17.6%; inhibition of growth at 10 µM [29]: 0.3%; inhibition of growth at 10 µM [30]: 11.8%; inhibition of growth at 10 µM [31]: 20.8%; inhibition of growth at 10 µM [32]: -32.1%; inhibition of growth at 10 µM [33]: -3.11%; inhibition of growth at 10 µM [34]: 6.96%; inhibition of growth at 10 µM [35]: -19.8%; inhibition of growth at 10 µM [36]: -11.9%; inhibition of growth at 10 µM [37]: 21.7%; inhibition of growth at 10 µM [38]: -19.4%; inhibition of growth at 10 µM [39]: 0.7%
O=[N+]([O-])c1cccc(C2c3sc4ccc(Cl)cc4c3N=C3NN=C(c4cccc(F)c4)N32)c1 (stereo unspecified)	-1.54	-20.8	-3.66	2.25	0.57	18.1	41.4	11.3	1.64	14.2	2.97	2.83	-1.43	14.8	14	13	-3.74	-7.53	-2.52	-11.2	inhibition of growth at 10 µM [21]: 2.2%; inhibition of growth at 10 µM [22]: -12.9%; inhibition of growth at 10 µM [23]: 7.14%; inhibition of growth at 10 µM [24]: 21.9%; inhibition of growth at 10 µM [25]: 6.99%; inhibition of growth at 10 µM [26]: 10.1%; inhibition of growth at 10 µM [27]: 2.47%; inhibition of growth at 10 µM [28]: -18%; inhibition of growth at 10 µM [29]: 2.31%; inhibition of growth at 10 µM [30]: 13.4%; inhibition of growth at 10 µM [31]: 21.3%; inhibition of growth at 10 µM [32]: -19.6%; inhibition of growth at 10 µM [33]: 1.04%; inhibition of growth at 10 µM [34]: 0.64%; inhibition of growth at 10 µM [35]: -15.4%; inhibition of growth at 10 µM [36]: 11.4%; inhibition of growth at 10 µM [37]: 24.4%; inhibition of growth at 10 µM [38]: -8.29%; inhibition of growth at 10 µM [39]: 2.49%
O=[N+]([O-])c1cccc(C2c3sc4ccc(Cl)cc4c3N=C3NN=CN32)c1 (stereo unspecified)	-0.5	-15.5	-2.71	4.21	0.93	-3.72	23	28.2	-18.1	10.8	-6.74	5.8	1.42	15	21.7	0.47	5.16	-15.1	-2.02	-17.5	inhibition of growth at 10 µM [21]: -0.61%; inhibition of growth at 10 µM [22]: 39%; inhibition of growth at 10 µM [23]: 1.55%; inhibition of growth at 10 µM [24]: -3.12%; inhibition of growth at 10 µM [25]: -4.99%; inhibition of growth at 10 µM [26]: 17.7%; inhibition of growth at 10 µM [27]: 3.7%; inhibition of growth at 10 µM [28]: -7.25%; inhibition of growth at 10 µM [29]: -3.63%; inhibition of growth at 10 µM [30]: 5.59%; inhibition of growth at 10 µM [31]: -11.9%; inhibition of growth at 10 µM [32]: -13.4%; inhibition of growth at 10 µM [33]: 4.93%; inhibition of growth at 10 µM [34]: 22.4%; inhibition of growth at 10 µM [35]: -17.9%; inhibition of growth at 10 µM [36]: 22%; inhibition of growth at 10 µM [37]: 16.9%; inhibition of growth at 10 µM [38]: 16.9%; inhibition of growth at 10 µM [39]: 3.22%
O=C1/C(=C\c2ccc3ccccc3c2)Sc2ccc(Cl)cc21	-1.8	-6.42	8.78	3.36	12.3	29.5	-5.61	-10.2	-2.83	5.71	-7.44	10.3	-4.13	12.7	17.9	1.25	3.24	-1.78	3.18	-2.15	inhibition of growth at 10 µM [21]: -7.74%; inhibition of growth at 10 µM [22]: -5.61%; inhibition of growth at 10 µM [23]: 11.7%; inhibition of growth at 10 µM [24]: 27.9%; inhibition of growth at 10 µM [25]: 2.65%; inhibition of growth at 10 µM [26]: 10.4%; inhibition of growth at 10 µM [27]: -1.53%; inhibition of growth at 10 µM [28]: 27.3%; inhibition of growth at 10 µM [29]: -8.09%; inhibition of growth at 10 µM [30]: 12.4%; inhibition of growth at 10 µM [31]: 15.7%; inhibition of growth at 10 µM [32]: -2.13%; inhibition of growth at 10 µM [33]: 18.6%; inhibition of growth at 10 µM [34]: 0.99%; inhibition of growth at 10 µM [35]: -17.4%; inhibition of growth at 10 µM [36]: 8.79%; inhibition of growth at 10 µM [37]: -10.2%; inhibition of growth at 10 µM [38]: -9.47%; inhibition of growth at 10 µM [39]: 6.88%
